Measurements taken from article PMC9386018, “A lymphatic-absorbed multi-targeted kinase inhibitor for myelofibrosis therapy” (Nature Communications, 2022).

What was measured:
[1] = tested on: pAKT (pS473) in splenocytes; assay: MPL^W515L MF mouse model: pAKT in splenocytes by flow cytometry; assay type: in vivo; details: MPL^W515L mice, oral 400 mg kg^−1 daily, 28 d
Method: The human megakaryoblastic cell line, SET-2 (ATCC), was maintained in RPMI 1640 supplemented with 20% FBS and incubated for 16 h at 10^6 cells mL^−1 with LP-182 or vehicle (DMSO; dimethyl sulfoxide), then washed in ice-cold PBS, and collected for flow cytometry analysis. Single-cell suspensions of mouse spleen were prepared from MPL^W515L MF mice (below) in RPMI 1640 supplemented with 5% FCS. Red blood cells were lysed by ammonium chloride-mediated red cell lysis (RCL) buffer and passed through a nylon mesh, and then cells were counted. For intracellular phospho-protein staining, SET-2 or spleen cells were fixed and then permeabilized using BD Phospho-flow fixation buffer and Perm-Buffer III (BD biosciences) according to the manufacturer’s protocol. Intracellular phospho-protein staining was performed using fluorochrome-conjugated antibodies, pAKT (pS473)-Alexa Fluor 647 (MB89-61) or pERK1/2 (pT202/pY204)-Alexa Fluor 647 (20 A). […] Flow cytometry was performed on a FACS Fortessa (Becton, Dickinson and Co.) using FACSDiVa software, and data analyzed using FlowJo software (Tree Star). […]
Generation of the MPL^W515L mutant MF mouse model was similar to previously described methods. […] Development of MF was evaluated by spleen volumes using MRI beginning ~14 d following bone marrow transplantation (BMT) as outlined below, continuing weekly until end of the study. […]

Microsomal stability = assay type: in vitro ADME; details: mouse, liver microsomes; ~1 µM, NADPH, 37 °C; read-out: t1/2 in murine liver microsomes
Method: Quantitative determination of LP-182 stability in murine liver microsomes was performed by the University of Michigan Pharmacokinetics Core. […]; in 100 mM phosphate buffer, 3 mM MgCl2) to a final concentration of […], and then reactions were sampled over 60 min. Aliquots were removed at the designated time points, quenched by addition of 4 volumes of cold acetonitrile, then centrifuged at 10,000 x g for 5 min to pellet protein precipitates. […] The natural log peak area ratio of compound to internal standard (Acmpd/AIstd) was plotted against time to determine pharmacokinetic properties of microsomal stability. All analyses, data processing, and calculations were performed and provided by the core. Data was generated from a single independent experiment.

[2] = Compound quantitation in blood and mesenteric lymph nodes; assay type: in vivo, mouse; details: female, CD-1, mouse, mesenteric lymph nodes; mice, 30 min after oral 100-1000 mg kg^−1
Method: Whole blood and mesenteric lymph nodes were collected either 30 min or 4 h following compound administration and stored at −20 °C until future processing and analysis by the University of Michigan Pharmacokinetics Core as above, or as outlined below, to determine compound concentrations in each tissue. […] Data was generated from n ≥ 4 individual animals per compound per study group or dose.
Briefly, acetonitrile was added to a final concentration of 60–80% to bone marrow, whole blood, plasma, lymphatic fluid, lymphatic proteo-lipid sub-fractions, or mesenteric lymph node samples for compound extraction. Extraction was performed by shaking and/or bead rupture using a Precellys Evolution tissue homogenizer (Bertin Technologies SAS). […] Optimization of MS and MS/MS parameters for MRM quantitation and maximum sensitivity of individual compounds was performed using SCIEX Analyst software (AB Sciex). […] All LC-MS/MS acquisitions were performed with an independent standard curve for each group of analytes and for each individual run. All solvents utilized were of Optima LC-MS Grade (Fisher Scientific). Data was generated from n ≥ 2 individual animals per compound per study condition or dose.

For `O=C(NOCCOCCOCCOCCC(=O)N1CCN(c2cnc3ccc(-c4cnc(Cl)c(NS(=O)(=O)c5ccc(F)cc5)c4)cc3n2)CC1)c1ccc(F)c(F)c1Nc1ccc(I)cc1F` [LP-182, N-(2-(2-(2-(3-(4-(7-(6-chloro-5-((4-fluorophenyl)sulfonamido)pyridin-3-yl)quinoxalin-2-yl)piperazin-1-yl)-3-oxopropoxy)ethoxy)ethoxy)ethoxy)-3,4-difluoro-2-((2-fluoro-4-iodophenyl)amino)benzamide], the “active AKT level in splenocytes” value [1] was “reduced active AKT and ERK1/2 levels to those comparable to healthy control mice”, the half-life (Microsomal stability) was about 8 min and the concentration at 30 min [2] was 5 to 15 µM.
